Test results reported in ChEMBL document CHEMBL1131533, “Development of a three-dimensional CysLT1 (LTD4) antagonist model with an incorporated amino acid residue from the receptor” (J Med Chem, 1998).

Biological target: T1, Cysteinyl leukotriene receptor 1 (Cavia porcellus, UniProt Q2NNR5)
T1 sequence (Q2NNR5 whole entry): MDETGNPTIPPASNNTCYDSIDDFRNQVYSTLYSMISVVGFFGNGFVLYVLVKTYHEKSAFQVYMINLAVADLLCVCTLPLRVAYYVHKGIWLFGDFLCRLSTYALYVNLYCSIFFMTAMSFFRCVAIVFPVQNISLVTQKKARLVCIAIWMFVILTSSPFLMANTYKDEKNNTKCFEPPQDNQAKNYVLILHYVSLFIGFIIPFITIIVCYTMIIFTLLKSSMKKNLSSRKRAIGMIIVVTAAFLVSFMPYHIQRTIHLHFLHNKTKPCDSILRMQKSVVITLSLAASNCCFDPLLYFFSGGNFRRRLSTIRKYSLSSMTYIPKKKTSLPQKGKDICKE
Test: Binding affinity towards Cysteinyl leukotriene D4 receptor (cysLT1) was measured by the displacement of [3H]LTD4 radioligand

Ki | IC50 | Compound
6.4 nM |  | CCC(CC)(CC(=O)Nc1cccc(/C=C/c2nc(C3CCC3)cs2)c1)C(=O)O
 | 17 nM | O=C(O)c1cccc2c(=O)cc(-c3cccc(/C=C/c4ccc5ccccc5n4)c3)oc12

Second part, the compound before the results:

Compound | Ki | IC50
O=C(Nc1cccc2c(=O)cc(-c3nn[nH]n3)oc12)c1ccc(OCc2ccc3ccccc3n2)cc1 | 1.1 nM | 
O=c1cc(-c2nnn[nH]2)oc2cc(OCc3cccc(OCc4ccc5ccccc5n4)c3)ccc12 | 3 nM | 
O=c1cc(-c2nnn[nH]2)oc2cc(/C=C/c3cccc(OCc4ccc5ccccc5n4)c3)ccc12 | 2.5 nM | 
